Assay results reported in the CheMixHub viscosity set.
± gives the uncertainty stated by the source.

Experiment: xn = mol fraction of the nth substance listed

NCCN + O
Conditions | viscosity [mPa·s]
298.15 K, 101 kPa, x1 = 0.044 | 1.221 ± 0.033
298.15 K, 101 kPa, x1 = 0.086 | 1.932 ± 0.053
298.15 K, 101 kPa, x1 = 0.161 | 4.028 ± 0.12
298.15 K, 101 kPa, x1 = 0.194 | 5.2 ± 0.16
298.15 K, 101 kPa, x1 = 0.245 | 6.69 ± 0.21
298.15 K, 101 kPa, x1 = 0.3 | 8.057 ± 0.26
298.15 K, 101 kPa, x1 = 0.33 | 8.351 ± 0.27
298.15 K, 101 kPa, x1 = 0.35 | 8.258 ± 0.27
298.15 K, 101 kPa, x1 = 0.374 | 7.825 ± 0.25
298.15 K, 101 kPa, x1 = 0.387 | 7.734 ± 0.24
298.15 K, 101 kPa, x1 = 0.397 | 7.379 ± 0.24
298.15 K, 101 kPa, x1 = 0.416 | 7.048 ± 0.22
298.15 K, 101 kPa, x1 = 0.441 | 6.544 ± 0.21
298.15 K, 101 kPa, x1 = 0.45 | 6.374 ± 0.2
298.15 K, 101 kPa, x1 = 0.474 | 6.012 ± 0.18
298.15 K, 101 kPa, x1 = 0.502 | 5.885 ± 0.18
298.15 K, 101 kPa, x1 = 0.517 | 5.667 ± 0.17
298.15 K, 101 kPa, x1 = 0.528 | 5.43 ± 0.17
298.15 K, 101 kPa, x1 = 0.55 | 4.61 ± 0.14
298.15 K, 101 kPa, x1 = 0.599 | 3.684 ± 0.11
298.15 K, 101 kPa, x1 = 0.664 | 3.054 ± 0.086
298.15 K, 101 kPa, x1 = 0.699 | 2.569 ± 0.071
298.15 K, 101 kPa, x1 = 0.801 | 1.94 ± 0.053
298.15 K, 101 kPa, x1 = 0.9 | 1.533 ± 0.041
303.15 K, 101.3 kPa, x1 = 0.1138 | 2.607 ± 0.26
303.15 K, 101.3 kPa, x1 = 0.2306 | 6.369 ± 0.64
303.15 K, 101.3 kPa, x1 = 0.3102 | 7.766 ± 0.78
303.15 K, 101.3 kPa, x1 = 0.4116 | 6.837 ± 0.69
303.15 K, 101.3 kPa, x1 = 0.5452 | 4.416 ± 0.44
303.15 K, 101.3 kPa, x1 = 0.6294 | 3.321 ± 0.33
303.15 K, 101.3 kPa, x1 = 0.7296 | 2.434 ± 0.24
303.15 K, 101.3 kPa, x1 = 0.8507 | 1.789 ± 0.18
303.15 K, 101.33 kPa, x1 = 0.05 | 1.368 ± 0.01
303.15 K, 101.33 kPa, x1 = 0.0999 | 2.291 ± 0.016
303.15 K, 101.33 kPa, x1 = 0.15 | 3.635 ± 0.025
303.15 K, 101.33 kPa, x1 = 0.1998 | 5.292 ± 0.036
303.15 K, 101.33 kPa, x1 = 0.2488 | 6.797 ± 0.045
303.15 K, 101.33 kPa, x1 = 0.2749 | 7.372 ± 0.048
303.15 K, 101.33 kPa, x1 = 0.2997 | 7.678 ± 0.05
303.15 K, 101.33 kPa, x1 = 0.3246 | 7.767 ± 0.051
303.15 K, 101.33 kPa, x1 = 0.3488 | 7.67 ± 0.051
303.15 K, 101.33 kPa, x1 = 0.3739 | 7.384 ± 0.05
303.15 K, 101.33 kPa, x1 = 0.3944 | 7.02 ± 0.048
303.15 K, 101.33 kPa, x1 = 0.4542 | 5.965 ± 0.042
308.15 K, 101.3 kPa, x1 = 0.1138 | 2.203 ± 0.22
308.15 K, 101.3 kPa, x1 = 0.2306 | 5.069 ± 0.51
308.15 K, 101.3 kPa, x1 = 0.3102 | 6.072 ± 0.61
308.15 K, 101.3 kPa, x1 = 0.4116 | 5.411 ± 0.54
308.15 K, 101.3 kPa, x1 = 0.5452 | 3.639 ± 0.36
308.15 K, 101.3 kPa, x1 = 0.6294 | 2.793 ± 0.28
308.15 K, 101.3 kPa, x1 = 0.7296 | 2.01 ± 0.2
308.15 K, 101.3 kPa, x1 = 0.8507 | 1.574 ± 0.16
308.15 K, 101.33 kPa, x1 = 0.05 | 1.208 ± 0.008
308.15 K, 101.33 kPa, x1 = 0.0999 | 1.971 ± 0.014
308.15 K, 101.33 kPa, x1 = 0.15 | 3.059 ± 0.021
308.15 K, 101.33 kPa, x1 = 0.1998 | 4.347 ± 0.03
308.15 K, 101.33 kPa, x1 = 0.2488 | 5.484 ± 0.038
308.15 K, 101.33 kPa, x1 = 0.2749 | 5.92 ± 0.04
308.15 K, 101.33 kPa, x1 = 0.2997 | 6.133 ± 0.042
308.15 K, 101.33 kPa, x1 = 0.3246 | 6.213 ± 0.042
313.15 K, 101.3 kPa, x1 = 0.1138 | 1.911 ± 0.19
313.15 K, 101.3 kPa, x1 = 0.2306 | 4.122 ± 0.41
313.15 K, 101.3 kPa, x1 = 0.3102 | 4.906 ± 0.49
313.15 K, 101.3 kPa, x1 = 0.4116 | 4.41 ± 0.44
313.15 K, 101.3 kPa, x1 = 0.5452 | 3.07 ± 0.31
313.15 K, 101.3 kPa, x1 = 0.6294 | 2.402 ± 0.24
313.15 K, 101.3 kPa, x1 = 0.7296 | 1.842 ± 0.18
313.15 K, 101.3 kPa, x1 = 0.8507 | 1.416 ± 0.14
318.15 K, 101.3 kPa, x1 = 0.1138 | 1.652 ± 0.17
318.15 K, 101.3 kPa, x1 = 0.2306 | 3.388 ± 0.34
318.15 K, 101.3 kPa, x1 = 0.3102 | 3.963 ± 0.4
318.15 K, 101.3 kPa, x1 = 0.4116 | 3.585 ± 0.36
318.15 K, 101.3 kPa, x1 = 0.5452 | 2.574 ± 0.26
318.15 K, 101.3 kPa, x1 = 0.6294 | 2.066 ± 0.21
318.15 K, 101.3 kPa, x1 = 0.7296 | 1.613 ± 0.16
318.15 K, 101.3 kPa, x1 = 0.8507 | 1.258 ± 0.13
323.15 K, 101 kPa, x1 = 0.044 | 0.684 ± 0.018
323.15 K, 101 kPa, x1 = 0.086 | 0.92 ± 0.025
323.15 K, 101 kPa, x1 = 0.161 | 1.549 ± 0.045
323.15 K, 101 kPa, x1 = 0.194 | 1.881 ± 0.056
323.15 K, 101 kPa, x1 = 0.245 | 2.184 ± 0.067
323.15 K, 101 kPa, x1 = 0.3 | 2.551 ± 0.08
323.15 K, 101 kPa, x1 = 0.33 | 2.571 ± 0.081
323.15 K, 101 kPa, x1 = 0.35 | 2.643 ± 0.083
323.15 K, 101 kPa, x1 = 0.374 | 2.423 ± 0.076
323.15 K, 101 kPa, x1 = 0.387 | 2.401 ± 0.076
323.15 K, 101 kPa, x1 = 0.397 | 2.306 ± 0.072
323.15 K, 101 kPa, x1 = 0.416 | 2.291 ± 0.071
323.15 K, 101 kPa, x1 = 0.441 | 2.214 ± 0.068
323.15 K, 101 kPa, x1 = 0.45 | 2.069 ± 0.064
323.15 K, 101 kPa, x1 = 0.474 | 2.058 ± 0.062
323.15 K, 101 kPa, x1 = 0.502 | 1.991 ± 0.061
323.15 K, 101 kPa, x1 = 0.517 | 1.919 ± 0.058
323.15 K, 101 kPa, x1 = 0.528 | 1.907 ± 0.057
323.15 K, 101 kPa, x1 = 0.55 | 1.733 ± 0.051
323.15 K, 101 kPa, x1 = 0.599 | 1.539 ± 0.044
323.15 K, 101 kPa, x1 = 0.664 | 1.32 ± 0.037
323.15 K, 101 kPa, x1 = 0.699 | 1.174 ± 0.033
323.15 K, 101 kPa, x1 = 0.801 | 0.978 ± 0.027
323.15 K, 101 kPa, x1 = 0.9 | 0.847 ± 0.023

NCCN + CC(O)CO
viscosity [mPa·s], 101 kPa
Conditions | 293.15 K | 298.15 K | 303.15 K | 308.15 K | 313.15 K | 318.15 K
x2 = 0.0399 | 1.85 ± 0.04 | 1.64 ± 0.03 | 1.48 ± 0.03 | 1.33 ± 0.03 | 1.2 ± 0.03 | 1.08 ± 0.02
x2 = 0.0807 | 2.29 ± 0.05 | 2 ± 0.04 | 1.82 ± 0.04 | 1.62 ± 0.03 | 1.43 ± 0.03 | 1.29 ± 0.03
x2 = 0.1223 | 2.72 ± 0.06 | 2.49 ± 0.05 | 2.23 ± 0.05 | 1.95 ± 0.04 | 1.81 ± 0.04 | 1.54 ± 0.03
x2 = 0.1649 | 3.73 ± 0.08 | 3.14 ± 0.07 | 2.84 ± 0.06 | 2.47 ± 0.05 | 2.21 ± 0.05 | 1.89 ± 0.04
x2 = 0.2084 | 4.73 ± 0.1 | 4.04 ± 0.08 | 3.54 ± 0.07 | 3.02 ± 0.06 | 2.63 ± 0.06 | 2.28 ± 0.05
x2 = 0.2529 | 6.26 ± 0.13 | 5.27 ± 0.11 | 4.5 ± 0.09 | 3.9 ± 0.08 | 3.33 ± 0.07 | –
x2 = 0.2984 | 8.74 ± 0.18 | 7.05 ± 0.15 | 6 ± 0.13 | 5.01 ± 0.1 | 4.23 ± 0.09 | –
x2 = 0.3449 | 11.9 ± 0.3 | 9.4 ± 0.2 | 7.92 ± 0.16 | 6.61 ± 0.14 | 5.49 ± 0.11 | –
x2 = 0.3926 | 16.9 ± 0.4 | 12.4 ± 0.3 | 10.5 ± 0.2 | 8.39 ± 0.17 | 6.94 ± 0.14 | –
x2 = 0.4413 | 22.8 ± 0.5 | 16.9 ± 0.4 | 13.6 ± 0.3 | 10.7 ± 0.2 | 8.8 ± 0.18 | –
x2 = 0.4912 | 30.5 ± 0.6 | 22.5 ± 0.5 | 17.7 ± 0.4 | 13.7 ± 0.3 | 11 ± 0.2 | –
x2 = 0.5423 | 39.6 ± 0.8 | 28.8 ± 0.6 | 22.7 ± 0.5 | 17.2 ± 0.4 | 13.6 ± 0.3 | –
x2 = 0.5946 | 48.1 ± 1 | 34.7 ± 0.7 | 27.4 ± 0.6 | 20.6 ± 0.4 | 16.1 ± 0.3 | –
x2 = 0.6483 | 55.8 ± 1.1 | 41.5 ± 0.9 | 31.7 ± 0.7 | 23.6 ± 0.5 | 18.5 ± 0.4 | –
x2 = 0.7032 | 62.6 ± 1.3 | 46.3 ± 1 | 35.2 ± 0.7 | 25.9 ± 0.5 | 20.3 ± 0.4 | –
x2 = 0.7596 | 66.6 ± 1.4 | 49.7 ± 1 | 37.8 ± 0.8 | 27.6 ± 0.6 | 21.6 ± 0.4 | –
x2 = 0.8174 | 66.8 ± 1.4 | 49.9 ± 1 | 38.4 ± 0.8 | 28.4 ± 0.6 | 22.2 ± 0.5 | –
x2 = 0.8767 | 64.5 ± 1.3 | 48.8 ± 1 | 37.4 ± 0.8 | 27.4 ± 0.6 | 22.1 ± 0.5 | –
x2 = 0.9375 | 60.7 ± 1.2 | 46.2 ± 1 | 35.5 ± 0.7 | 26.2 ± 0.5 | 21.1 ± 0.4 | –
